Experimental data as given in US20250074911A1, “MACROCYCLIC BTK INHIBITORS” (Crossfire Oncology Holding B.V., priority 2021, published 2025).
Where “and” joins values, the source holds several entries; their conditions need not be identical. Equal entries are not always repeated.

Assays:
[1] = target: full-length wt-BTK enzyme (Homo sapiens (Human), UniProt Q06187); test: Biochemical kinase assay wt-BTK (IMAP)
Outline: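 Compound and enzyme (final 1.2 nM) were pre-incubated for 1 h at RT, after which the reaction was started with 4 μM ATP plus 50 nM fluorescein-MBP substrate peptide. After 2 h in the dark, the IMAP progressive binding reagent stopped the reaction, and phosphorylation was read by fluorescence polarization.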

[2] = target: full-length BTK C481S enzyme (Homo sapiens (Human), UniProt Q06187, C481S); test: Biochemical kinase assay BTK C481S (IMAP)
Outline: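 IC50 values come from IMAP fluorescence polarization after quenching with progressive binding solution. The reaction ran 2 h at room temperature in the dark with 1.2 nM full-length C481S enzyme, 7 μM ATP and 50 nM fluorescein-labelled MBP-derived peptide, following a 1 h dark pre-incubation of compound with enzyme.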

[3] = test system: wt-REC-1 mantle cell lymphoma cells; test: Cell proliferation assay wt-REC-1 (ATPlite, 72 hours); format: cell-based; settings: 72 h; read-out: IC50 wt-REC-1
Outline: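 Luminescent viability read over 72 h, start-of-incubation signal recorded separately to separate growth from cell death. Percentage growth referenced to compound-free 0.3% DMSO wells; IC50 from 4-parameter logistic fit.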

REC-1 T474I cell lines = test: Cell proliferation assay REC-1 BTK T474I knock-in cells (ATPlite, 72 hours); format: cell-based; settings: Homo sapiens, Rec1; 72 hours; read-out: IC50 REC-1 T474I
Outline: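 REC-1 cells carrying CRISPR knock-in mutant BTK, single-cell cloned and sequence-confirmed, were exposed to compound for 72 h and read by ATPlite luminescence. Percentage growth was calculated against the signal at the start of incubation and against untreated 0.3% DMSO wells as maximum growth.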

wt-BTK = wt-BTK (Homo sapiens (Human), UniProt Q06187); test: Binding kinetics measurements (Surface Plasmon Resonance) on wt-BTK; settings: for Kd: binding affinity by Surface Plasmon Resonance (SPR); for Tau (h) wt-BTK (Act): target residence time, SPR
Outline: (§1)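 Using streptavidin-captured kinase, binding was followed by SPR in 1% DMSO buffer at 22° C and 30 μl/min. Five consecutive compound injections spanned 3.16-316 nM, preceded by a blank run; data were double referenced before kinetic fitting.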

BTK C481S = BTK C481S (Homo sapiens (Human), UniProt Q06187, C481S); test: Binding kinetics measurements (Surface Plasmon Resonance) on BTK C481S; settings: for Kd: binding affinity by Surface Plasmon Resonance (SPR); for Tau (h) BTK C418S (Act): target residence time for BTK C481S, SPR
Outline: as §1

BTK T316A = BTK T316A (Homo sapiens (Human), UniProt Q06187, T316A); test: Binding kinetics measurements (Surface Plasmon Resonance) on BTK T316A; settings: for Kd: binding affinity by Surface Plasmon Resonance (SPR); for Tau (h) BTK T316A (Act): target residence time, SPR
Outline: as §1

BTK T474I = BTK T474I (Homo sapiens (Human), UniProt Q06187, T474I); test: Binding kinetics measurements (Surface Plasmon Resonance) on BTK T474I; settings: for Kd: binding affinity by Surface Plasmon Resonance (SPR); for Tau (h) BTK T474I (Act): target residence time, SPR
Outline: as §1

BTK T474S = BTK T474S (Homo sapiens (Human), UniProt Q06187, T474S); test: Binding kinetics measurements (Surface Plasmon Resonance) on BTK T474S; settings: for residence time: SPR binding kinetics, BTK T474S, read-out: Tau (h) BTK T474S (Act), target residence time (converted); for Kd: binding affinity by Surface Plasmon Resonance (SPR)
Outline: as §1

[4] = test system: wt-TMD8 diffuse large B-cell lymphoma cells; test: Cell proliferation assay wt-TMD8 (ATPlite, 120 hours); format: cell-based; settings: B-cell; wt-TMD8 cells, 120 hours, ATPlite; read-out: IC50 wt-TMD8
Outline: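 Readout is percentage growth from ATPlite 1Step luminescence after 5 days (120 h) compound treatment of wt-TMD8 lymphoma cells (1600/well, RPMI-1640 + 10% FBS). Time-zero signal separates growth inhibition from cell kill; 0.3% DMSO wells without compound define maximal growth.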

Chain of wt-BTK (Q06187 whole entry): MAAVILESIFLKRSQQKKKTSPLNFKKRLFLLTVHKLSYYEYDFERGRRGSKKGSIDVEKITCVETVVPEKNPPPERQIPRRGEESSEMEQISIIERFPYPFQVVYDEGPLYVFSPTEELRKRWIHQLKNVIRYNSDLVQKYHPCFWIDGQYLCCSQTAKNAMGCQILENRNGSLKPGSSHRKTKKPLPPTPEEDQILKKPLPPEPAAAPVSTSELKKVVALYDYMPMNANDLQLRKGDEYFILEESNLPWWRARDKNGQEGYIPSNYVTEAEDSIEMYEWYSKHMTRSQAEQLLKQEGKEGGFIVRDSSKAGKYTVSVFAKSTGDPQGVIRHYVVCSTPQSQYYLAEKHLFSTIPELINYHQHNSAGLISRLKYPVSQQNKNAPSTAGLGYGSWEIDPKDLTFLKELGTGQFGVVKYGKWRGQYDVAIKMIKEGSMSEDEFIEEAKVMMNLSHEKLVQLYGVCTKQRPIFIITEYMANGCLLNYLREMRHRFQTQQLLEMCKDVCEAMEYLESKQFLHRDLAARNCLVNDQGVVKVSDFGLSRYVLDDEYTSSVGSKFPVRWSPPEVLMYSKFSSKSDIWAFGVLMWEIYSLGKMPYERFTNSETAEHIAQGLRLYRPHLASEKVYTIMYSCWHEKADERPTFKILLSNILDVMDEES
Chain of full-length wt-BTK enzyme (Q06187 whole entry): as above
Chain of BTK C481S (Q06187 whole entry C481S): as the sequence (Q06187 whole entry) above, with C481S counted along it
Chain of full-length BTK C481S enzyme (Q06187 whole entry C481S): as the sequence (Q06187 whole entry) above, with C481S counted along it
Chain of BTK T474S (Q06187 whole entry T474S): as the sequence (Q06187 whole entry) above, with T474S counted along it
Chain of BTK T474I (Q06187 whole entry T474I): as the sequence (Q06187 whole entry) above, with T474I counted along it
Chain of BTK T316A (Q06187 whole entry T316A): as the sequence (Q06187 whole entry) above, with T316A counted along it

| Compound | IC50 [1] | IC50 [2] | IC50 [3] | Kd (wt-BTK) | Tau (h) wt-BTK (Act) (wt-BTK) | Kd (BTK C481S) | Tau (h) BTK C418S (Act) (BTK C481S) | Kd (BTK T316A) | Tau (h) BTK T316A (Act) (BTK T316A) | Kd (BTK T474I) | residence time (BTK T474S) | Kd (BTK T474S) | IC50 [4] | Tau (h) BTK T474I (Act) (BTK T474I) | IC50 (REC-1 T474I cell lines) |
| --- | --- | --- | --- | --- | --- | --- | --- | --- | --- | --- | --- | --- | --- | --- | --- |
| Nc1ncc2c3c1c(-c1ccc(C(=O)Nc4cc(C(F)(F)F)ccn4)cc1F)nn3[C@@H]1CCC[C@H](C1)NC(=O)CNC/C=C/2 [Example 8] | < 5 nM | < 5 nM | 100 to 1000 nM | < 5 nM | 2.25 h | < 5 nM | 3.30 h | < 5 nM | 1.30 h | 10 to 50 nM and < 5 nM | 3.17 h | < 3 nM | < 100 nM |  | 500 to 10000 nM |
| Nc1ncc2c3c1c(-c1ccc(C(=O)Nc4cc(C(F)(F)F)ccn4)cc1)nn3[C@@H]1CCC[C@H](C1)NC(=O)CCCOC/C=C/2 [Example 27] | < 5 nM | < 5 nM | < 100 nM | < 5 nM | 5.05 h | < 5 nM | 2.04 h | < 5 nM | 3.37 h | < 2 nM | 4.09 h | < 3 nM | < 100 nM | 2.55 h | < 100 nM |
| CN1C/C=C/c2cnc(N)c3c(-c4ccc(C(=O)Nc5cc(C(F)(F)F)ccn5)cc4)nn(c23)[C@@H]2CCC[C@H](C2)NC(=O)CC1 [Example 17] | < 5 nM | < 5 nM | < 100 nM | < 5 nM | 5.24 h | < 5 nM | 14.35 h | < 5 nM | 3.60 h | < 2 nM | 8.71 h | < 3 nM | < 100 nM | 1.12 h | < 100 nM |
| Nc1ncc2c3c1c(-c1ccc(C(=O)Nc4cc(C(F)(F)F)ccn4)cc1F)nn3[C@@H]1CCC[C@H](C1)NC(=O)CCC/C=C/2 [Example 7] | < 5 nM | < 5 nM | < 100 nM | < 5 nM | 2.57 h | < 5 nM | 4.50 h | < 5 nM | 2.03 h | < 2 nM | 4.98 h | < 3 nM | < 100 nM |  | 500 to 10000 nM |
| Nc1ncc2c3c1c(-c1ccc(C(=O)Nc4cc(C(F)(F)F)ccn4)cc1)nn3[C@@H]1CCC[C@H](C1)NC(=O)CCC/C=C/2 [Example 47] | < 5 nM | < 5 nM | 100 to 1000 nM | < 5 nM | 2.66 h | < 5 nM | 4.68 h | < 5 nM | 1.91 h | < 2 nM | 2.76 h | < 3 nM | < 100 nM | 0.86 h | 100 to 500 nM |

More lines, main results first:

| IC50 [1] | IC50 [2] | IC50 [3] | Kd (wt-BTK) | Tau (h) wt-BTK (Act) (wt-BTK) | Kd (BTK C481S) | Tau (h) BTK C418S (Act) (BTK C481S) | Kd (BTK T316A) | Tau (h) BTK T316A (Act) (BTK T316A) | Kd (BTK T474I) | residence time (BTK T474S) | Kd (BTK T474S) | IC50 [4] | Tau (h) BTK T474I (Act) (BTK T474I) | Compound | IC50 (REC-1 T474I cell lines) |
| --- | --- | --- | --- | --- | --- | --- | --- | --- | --- | --- | --- | --- | --- | --- | --- |
| < 5 nM | < 5 nM | < 100 nM | < 5 nM | 3.70 h | < 5 nM | 5.25 h | < 5 nM | 3.44 h | < 2 nM | 9.61 h | < 3 nM | < 100 nM | 2.37 h | Nc1ncc2n3c(nc(-c4ccc(C(=O)Nc5cc(C(F)(F)F)ccn5)cc4)c13)[C@@H]1CCC[C@H](C1)NC(=O)CCCCC/C=C/2 [Example 131] | < 100 nM |
| < 5 nM | < 5 nM | < 100 nM | < 5 nM | 5.28 h | < 5 nM | 1.73 h | < 5 nM | 10.42 h | < 2 nM | 6.36 h | < 3 nM | < 100 nM |  | Nc1ncc2c3c1c(-c1ccc(C(=O)Nc4cc(C(F)(F)F)ccn4)cc1)nn3[C@@H]1CCC[C@H](C1)NC(=O)[C@@H]1CCN(C/C=C/2)C1 [Example 147] | < 100 nM |
| < 5 nM | < 5 nM | 100 to 1000 nM | < 5 nM | 1.82 h | < 5 nM | 1.92 h | < 5 nM |  | 10 to 50 nM and < 5 nM | 2.09 h | < 3 nM | < 100 nM |  | COc1ccc(F)cc1C(=O)NCc1ccc(-c2nn3c4c(cnc(N)c24)/C=C/CCCCC(=O)N[C@@H]2CCC[C@@H]3C2)cc1 [Example 51] | 100 to 500 nM |
| < 5 nM | < 5 nM | 100 to 1000 nM | < 5 nM | 2.36 h | < 5 nM | 5.84 h | < 5 nM | 6.08 h | < 2 nM | 1.24 h | < 3 nM | < 100 nM | 2.11 h | C[C@H]1CC(=O)N[C@@H]2CCC[C@H](C2)n2nc(-c3ccc(C(=O)Nc4cc(C(F)(F)F)ccn4)cc3)c3c(N)ncc(c32)/C=C/CCN1C [Example 152] | < 100 nM |
| < 5 nM | < 5 nM | < 100 nM | < 5 nM | 2.24 h | < 5 nM | 2.74 h | < 5 nM | 1.46 h | 10 to 50 nM and < 5 nM | 2.62 h | < 3 nM | < 100 nM |  | C[C@@H]1CCn2nc(-c3ccc(C(=O)Nc4cc(C(F)(F)F)ccn4)cc3)c3c(N)ncc(c32)/C=C/COCC(=O)N1 [Example 56] | 500 to 10000 nM |
